Assay [1] has as its target T1, Glutamate receptor ionotropic, AMPA (Rattus norvegicus, UniProt P19490+P19491+P19492+P19493). Description: In vitro inhibition of [3H]CNQX binding to Ionotropic glutamate receptor AMPA. In kind it is protein-complex assay.
The species entered for a further assay is Rattus norvegicus. Description: Inhibitory activity against antagonism of AMPA induced responses in rat cortical slices. In kind it is functional.
The target of assay [2] is T1, Glutamate receptor ionotropic, AMPA. Description: In vitro inhibition of [3H]AMPA binding to Ionotropic glutamate receptor AMPA. The assay is classed as protein-complex assay.
Assay [3] addresses Glutamate receptor ionotropic, kainate. Put plainly: In vitro inhibition of [3H]KAIN binding to Ionotropic glutamate receptor kainate. In kind it is protein-complex assay.
A further assay addresses Glutamate NMDA receptor. Put plainly: In vitro inhibition of [3H]CPP binding to NMDA receptor. The assay is classed as protein-complex assay.
Assay [4] has as its target T1, Glutamate receptor ionotropic, AMPA. Description: Inhibition of AMPA induced electrophysiological responses in rat cortical slices. In kind it is functional.

pIC50, pKi: −log10 of the molar value.

The pIC50 is the negative decadic logarithm of the IC50, by convention in mol/L. A higher pIC50 goes with a small IC50. With `Cc1onc(OCC(=O)O)c1CC(N)C(=O)O` (stereo unspecified), the negative-log IC50 (pIC50) in assay [1] is 5.10; in the assay filed under Rattus norvegicus it was 3.49.

In the case of `Cc1onc(OCP(=O)(O)O)c1CC(N)C(=O)O` (stereo unspecified), the pIC50 in assay [2] was 4.51; in assay [1], 5.16; in assay [3], under 4.00; on Glutamate NMDA receptor, under 4.00; in assay [4], 4.22.

Consider `NC(Cc1cc(OCC(=O)O)no1)C(=O)O` (stereo unspecified), for which the pIC50 was under 4.00 in assay [2]; under 4.00 in assay [1]; under 4.00 in assay [3]; under 4.00 on Glutamate NMDA receptor; under 3.00 in assay [4].

With `CC(C)(C)Cc1onc(OCP(=O)(O)O)c1CC(N)C(=O)O` (stereo unspecified), the negative-log IC50 (pIC50) in assay [2] is under 4.00; in assay [1], 4.46; in assay [3] it was under 4.00; on Glutamate NMDA receptor, under 4.00; in assay [4] it was under 3.00.

By pKi is commonly meant the Ki on a negative log10 scale, so that one unit is a factor of ten. A high value points to a low Ki. As to `O=C(O)[C@H]1CN(CCCP(=O)(O)O)CCN1`, the pIC50 in assay [2] is under 4.00; at Glutamate NMDA receptor, 7.30. Further, the negative logarithm of the Ki (pKi) in assay [4] was 5.80.

On to `NC(Cc1c(OCC(=O)O)noc1-c1cccs1)C(=O)O` (stereo unspecified), for which the negative-log IC50 (pIC50) is under 4.00 in assay [2]; under 4.00 in assay [1]; under 4.00 in assay [3]; under 4.00 at Glutamate NMDA receptor; under 3.00 in assay [4].

Regarding `NC(Cc1c(OCC(=O)O)noc1-c1ccccc1)C(=O)O` (stereo unspecified), the negative logarithm of the IC50 (pIC50) was under 4.00 in assay [2]; under 4.00 in assay [1]; under 4.00 in assay [3]; under 4.00 on Glutamate NMDA receptor; under 3.00 in assay [4].

`CCCCc1onc(OCC(=O)O)c1CC(N)C(=O)O` (stereo unspecified): the negative logarithm of the IC50 (pIC50) is under 4.00 in assay [2]; 4.06 in assay [1]; under 4.00 in assay [3]; under 4.00 at Glutamate NMDA receptor; under 3.00 in assay [4].

`NC(Cc1cc(OCP(=O)(O)O)no1)C(=O)O` (stereo unspecified): the pIC50 in assay [2] is under 4.00; in assay [1], under 4.00; in assay [3], under 4.00; on Glutamate NMDA receptor, under 4.00; in assay [4] it was under 3.00.

For `N#Cc1cc2c(cc1[N+](=O)[O-])=NC(=O)C(=O)N=2`, the negative logarithm of the IC50 (pIC50) in assay [3] was 5.82; on Glutamate NMDA receptor, 4.60.

On to `CC(C)(C)c1onc(OCC(=O)O)c1CC(N)C(=O)O` (stereo unspecified), for which the pIC50 is 4.48 in assay [2]; 4.92 in assay [1]; under 4.00 in assay [3]; under 4.00 at Glutamate NMDA receptor; 3.82 in assay [4].

Consider `NC(Cc1c(OCP(=O)(O)O)noc1-c1cccs1)C(=O)O` (stereo unspecified), for which the negative-log IC50 (pIC50) was under 4.00 in assay [2]; under 4.00 in assay [1]; under 4.00 in assay [3]; under 4.00 on Glutamate NMDA receptor; 3.44 in assay [4].

Consider `CCCCc1onc(OCP(=O)(O)O)c1CC(N)C(=O)O` (stereo unspecified), for which the pIC50 in assay [2] is under 4.00; in assay [1], 4.74; in assay [3], under 4.00; on Glutamate NMDA receptor, under 4.00; in assay [4], 3.85.

For `CC(C)(C)Cc1onc(OCC(=O)O)c1CC(N)C(=O)O` (stereo unspecified), the negative logarithm of the IC50 (pIC50) in assay [2] is under 4.00; in assay [1] it was under 4.00; in assay [3], under 4.00; on Glutamate NMDA receptor, under 4.00; in assay [4], under 3.00.

Regarding `CC(C)(C)c1onc(OCP(=O)(O)O)c1CC(N)C(=O)O` (stereo unspecified), the negative-log IC50 (pIC50) (in assay [3]; on Glutamate NMDA receptor) was under 4.00 in each case.

For the compound `CCCC(CCC)c1onc(OCC(=O)O)c1CC(N)C(=O)O` (stereo unspecified), the pIC50 is under 4.00 in assay [2]; 4.20 in assay [1]; under 4.00 in assay [3]; under 4.00 at Glutamate NMDA receptor; under 3.00 in assay [4].

`NC(Cc1c(OCP(=O)(O)O)noc1-c1ccccc1)C(=O)O` (stereo unspecified): the pIC50 in assay [2] is under 4.00; in assay [1], under 4.00; in assay [3] it was under 4.00; on Glutamate NMDA receptor, under 4.00; in assay [4], under 3.00.

On to `CCCC(CCC)c1onc(OCP(=O)(O)O)c1CC(N)C(=O)O` (stereo unspecified), for which the negative logarithm of the IC50 (pIC50) in assay [2] was under 4.00; in assay [3], under 4.00; in assay [4] it was 3.46.

On to `O=C(O)C1Cc2c(OCP(=O)(O)O)noc2CN1` (stereo unspecified), for which the negative logarithm of the IC50 (pIC50) in assay [2] is under 4.00; in assay [1], under 4.00; in assay [3], under 4.00; at Glutamate NMDA receptor, 4.66.
